Among the data in patent publication US7319101B2, “COMT inhibitors for the treatment of depression and impaired cognition” (Hoffmann-La Roche Inc., priority 2003, dated 2008) are IC50 and melting point values, retold here.

Data set [1] deals with T1, catechol-O-methyltransferase (COMT) obtained from rat liver (Rattus norvegicus, UniProt P22734).
T1 construct: from tissue; host or cells: rat liver homogenate
T1 sequence (P22734 1-264): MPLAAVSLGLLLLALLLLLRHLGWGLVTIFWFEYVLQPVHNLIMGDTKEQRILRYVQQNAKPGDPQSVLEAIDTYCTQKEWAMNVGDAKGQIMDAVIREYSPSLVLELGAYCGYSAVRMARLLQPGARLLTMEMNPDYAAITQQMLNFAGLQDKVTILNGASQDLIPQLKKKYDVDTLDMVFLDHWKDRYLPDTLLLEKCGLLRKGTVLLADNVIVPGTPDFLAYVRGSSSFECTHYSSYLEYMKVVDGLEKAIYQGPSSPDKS
The experiment in a line: COMT inhibition, radiochemical assay with rat liver homogenate (Zürcher et al.). It is filed as biochemical. The settings on record: rat liver tissue extract; substrate benzene-1,2-diol 2.5 mM, [3H]SAM 183 μM; 15 min preincubation at 37° C., pH 7.6. How it is done: The inhibitory activity can be determined in vitro with COMT obtained from rat liver. Rat liver homogenate is incubated in the presence of a suitable substrate as described by Zürcher et al. in J. Neurochem. 1982, 38, 191-195 and the COMT activity is measured.
IC50 values were determined as follows: The inhibitors were dissolved in Me2SO as 1.2 mM stock solution and further diluted with Me2SO. The reactions were performed in standard polypropylene vials. 25 μl of the inhibitor in varying concentrations from 10^−4 to 10^−9 mol L^−1 were mixed with 215 μl freshly prepared buffer-substrate mixture consisting of 170 μl potassium phosphate buffer (0.1 mol L^−1, pH 7.6), 10 μl MgCl2, (0.1 mol L^−1), 10 μl dithiothreitol (0.065 mol L^−1) and 25 μl of tissue extract. The enzyme preparations were preincubated for 15 min at 37° C. The reaction was started by adding 30 μl substrate (benzene-1,2-diol, 0.025 mol L^−1), 10 μl [^3H]SAM (5.5 mmol L^−1, specific activity: 13.36 Bq mol^−1 (3.61 Cimol^−1) and 20 μl deionized H2O, reaching a final substrate concentration of 2.5 mM and a final [^1H]/[^3H]SAM concentration of 183 μM. The reaction was stopped after incubating the vials in a water-bath at 37° C. for 15 min by addition of 200 μl HOAc (5.7%) containing guaiacol (0.1 g L^−1). The reaction vessels were transferred into polyethylene scintillation vials and 3 ml of scintillation fluid (5 g butyl-PBD, dissolved in 200 ml toluene, made up to 1 L with n-hexane) was added.
The samples were counted in a Beckmann LS 6000 TA scintillation counter.

For the compound `Nc1ncnc2c1ncn2[C@@H]1O[C@H](/C=C/CNC(=O)c2cccc(O)c2O)C(O)C1O` (stereo in doubt) [Example 1, N1-{(E)-3-[(3aR,4R,6R,6aR)-5-(6-amino-9H-purin-9-yl)-3,4-dihydroxytetrahydrofuran-2-yl]prop-2-enyl}-2,3-dihydroxy-benzamide], the melting point is 134 °C (dec.). In addition, the IC50 in data set [1] was 2600 nM. In the same order, the values of `Nc1ncnc2c1ncn2[C@@H]1O[C@H](/C=C/CNC(=O)c2cc(Br)cc(O)c2O)C(O)C1O` (stereo in doubt) [Example 2, N1-{(E)-3-[(3aR,4R,6R,6aR)-5-(6-amino-9H-purin-9-yl)-3,4-dihydroxytetrahydrofuran-2-yl]prop-2-enyl}-5-bromo-2,3-dihydroxy-benzamide] are 123 °C (dec.) and 28 nM. In data set [1], `N#Cc1cc(O)c(O)c(C(=O)NC/C=C/[C@H]2O[C@@H](n3cnc4c(N)ncnc43)C(O)C2O)c1` (stereo in doubt) [Example 3, N1-{(E)-3-[(3aR,4R,6R,6aR)-5-(6-amino-9H-purin-9-yl)-3,4-dihydroxytetrahydrofuran-2-yl]prop-2-enyl}-5-cyano-2,3-dihydroxy-benzamide] had an IC50 of 29 nM. As to `Nc1ncnc2c1ncn2[C@@H]1O[C@H](/C=C/CNC(=O)c2cc(C(=O)C(F)(F)F)cc(O)c2O)C(O)C1O` (stereo in doubt) [Example 4, N1-{(E)-3-[(3aR,4R,6R,6aR)-5-(6-amino-9H-purin-9-yl)-3,4-dihydroxytetrahydrofuran-2-yl]prop-2-enyl}-5-(2,2,2-trifluoro-acetyl)-2,3-dihydroxy-benzamide], the IC50 in data set [1] was 39 nM. Same read-out and setting: the value for `Nc1ncnc2c1ncn2[C@@H]1O[C@H](/C=C/CNC(=O)c2cc(C(=O)c3ccncc3)cc(O)c2O)C(O)C1O` (stereo in doubt) [Example 5, N1-{(E)-3-[(3aR,4R,6R,6aR)-5-(6-amino-9H-purin-9-yl)-3,4-dihydroxytetrahydrofuran-2-yl]prop-2-enyl}-5-(pyridine-4-carbonyl)-2,3-dihydroxy-benzamide] was 42 nM; that for `Nc1ncnc2c1ncn2[C@@H]1O[C@H](/C=C/CNC(=O)c2cc(C(=O)C3CCCCC3)cc(O)c2O)C(O)C1O` (stereo in doubt) [Example 6, N1-{(E)-3-[(3aR,4R,6R,6aR)-5-(6-amino-9H-purin-9-yl)-3,4-dihydroxytetrahydrofuran-2-yl]prop-2-enyl}-5-cyclohexanecarbonyl-2,3-dihydroxy-benzamide] was 83 nM. For `Nc1ncnc2c1ncn2[C@@H]1O[C@H](/C=C/CNC(=O)c2cc(Cl)cc(O)c2O)C(O)C1O` (stereo in doubt) [Example 7, N1-{(E)-3-[(3aR,4R,6R,6aR)-5-(6-amino-9H-purin-9-yl)-3,4-dihydroxytetrahydrofuran-2-yl]prop-2-enyl}-5-chloro-2,3-dihydroxy-benzamide], half-maximal inhibition in data set [1] (IC50) was put at 44 nM. The same measure, in the same setting: the value for `Nc1ncnc2c1ncn2[C@@H]1O[C@H](/C=C/CNC(=O)c2cc(-c3ccc(F)cc3)cc(O)c2O)C(O)C1O` (stereo in doubt) [Example 8, N1-{(E)-3-[(3aR,4R,6R,6aR)-5-(6-amino-9H-purin-9-yl)-3,4-dihydroxytetrahydrofuran-2-yl]prop-2-enyl}-5-(4-fluoro-phenyl)-2,3-dihydroxy-benzamide] was 21 nM; that for `Cc1ccc(-c2cc(O)c(O)c(C(=O)NC/C=C/[C@H]3O[C@@H](n4cnc5c(N)ncnc54)C(O)C3O)c2)cc1` (stereo in doubt) [Example 9, N1-{(E)-3-[(3aR,4R,6R,6aR)-5-(6-amino-9H-purin-9-yl)-3,4-dihydroxytetrahydrofuran-2-yl]prop-2-enyl}-5-p-tolyl-2,3-dihydroxy-benzamide] was 23 nM. Same read-out and setting: the value for `Nc1ncnc2c1ncn2[C@@H]1O[C@H](/C=C/CNC(=O)c2cc(-c3nccs3)cc(O)c2O)C(O)C1O` (stereo in doubt) [Example 10, N1-{(E)-3-[(3aR,4R,6R,6aR)-5-(6-amino-9H-purin-9-yl)-3,4-dihydroxytetrahydrofuran-2-yl]prop-2-enyl}-5-thiazol-2-yl-2,3-dihydroxy-benzamide] was 27 nM. On to `Nc1ncnc2c1ncn2[C@@H]1O[C@H](/C=C/CNC(=O)c2cc(-c3ccncc3)cc(O)c2O)C(O)C1O` (stereo in doubt) [Example 12, N1-{(E)-3-[(3aR,4R,6R,6aR)-5-(6-amino-9H-purin-9-yl)-3,4-dihydroxytetrahydrofuran-2-yl]prop-2-enyl}-5-pyridin-4-yl-2,3-dihydroxy-benzamide], for which the melting point was 133 to 137 °C (dec.). Further, the midpoint of inhibition in data set [1], the IC50, lay at 23 nM. The compound `Cc1ccc(Cc2cc(O)c(O)c(C(=O)NC/C=C/[C@H]3O[C@@H](n4cnc5c(N)ncnc54)C(O)C3O)c2)cc1` (stereo in doubt) [Example 13, N1-{(E)-3-[(3aR,4R,6R,6aR)-5-(6-amino-9H-purin-9-yl)-3,4-dihydroxytetrahydrofuran-2-yl]prop-2-enyl}-5-(4-methyl-benzyl)-2,3-dihydroxy-benzamide] gave an IC50 in data set [1] of 608 nM. The same measure, in the same setting: the value for `CN(C)C(=O)c1cc(O)c(O)c(C(=O)NC/C=C/[C@H]2O[C@@H](n3cnc4c(N)ncnc43)C(O)C2O)c1` (stereo in doubt) [Example 14, N1-{(E)-3-[(3aR,4R,6R,6aR)-5-(6-amino-9H-purin-9-yl)-3,4-dihydroxytetrahydrofuran-2-yl]prop-2-enyl}-5-dimethylcarbamoyl-2,3-dihydroxy-benzamide] was 2000 nM; that for `CN(C)C(=O)/C=C/c1cc(O)c(O)c(C(=O)NC/C=C/[C@H]2O[C@@H](n3cnc4c(N)ncnc43)C(O)C2O)c1` (stereo in doubt) [Example 15, N1-{(E)-3-[(3aR,4R,6R,6aR)-5-(6-amino-9H-purin-9-yl)-3,4-dihydroxytetrahydrofuran-2-yl]prop-2-enyl}-5-((E)-2-dimethylcarbamoyl-vinyl)-2,3-dihydroxy-benzamide] was 97 nM. The same measure, in the same setting: the value for `Nc1ncnc2c1ncn2[C@@H]1O[C@H](/C=C/CNC(=O)c2cc(C(F)(F)F)cc(O)c2O)C(O)C1O` (stereo in doubt) [Example 16, N1-{(E)-3-[(3aR,4R,6R,6aR)-5-(6-amino-9H-purin-9-yl)-3,4-dihydroxytetrahydrofuran-2-yl]prop-2-enyl}-5-trifluoromethyl-2,3-dihydroxy-benzamide] was 35 nM; that for `Cc1ccc(S(=O)(=O)c2cc(O)c(O)c(C(=O)NC/C=C/[C@H]3O[C@@H](n4cnc5c(N)ncnc54)C(O)C3O)c2)cc1` (stereo in doubt) [Example 18, N1-{(E)-3-[(3aR,4R,6R,6aR)-5-(6-amino-9H-purin-9-yl)-3,4-dihydroxytetrahydrofuran-2-yl]prop-2-enyl}-5-(toluene-4-sulfonyl)-2,3-dihydroxy-benzamide] was 213 nM. Still for that read-out and setting: to `Cc1ccc(C(=O)c2cc(O)c(O)c(C(=O)NC/C=C/[C@H]3O[C@@H](n4cnc5c(N)ncnc54)C(O)C3O)c2)cc1` (stereo in doubt) [Example 19, N1-{(E)-3-[(3aR,4R,6R,6aR)-5-(6-amino-9H-purin-9-yl)-3,4-dihydroxy-tetrahydrofuran-2-yl]prop-2-enyl}-5-(4-methyl-benzoyl)-2,3-dihydroxy-benzamide] belongs 34 nM; to `Nc1ncnc2c1ncn2C1OC(C=CCNC(=O)c2cc([N+](=O)[O-])cc(O)c2O)C(O)C1O` (stereo not drawn) [comparative example, N-{3-[5-(6-Amino-purin-9-yl)-3,4-dihydroxy-tetrahydro-furan-2-yl]-allyl}-2,3-dihydroxy-5-nitro-benzamide, reference compound], 9 nM.
